Assays:
Format in all cases: biochemical
recombinant human DPP7 = molecular target: T1, recombinant human DPP7 (Homo sapiens, UniProt Q9UHL4); experiment: DPP7 inhibition, fluorogenic substrate Lys-Pro-AMC; conditions: recombinant human DPP7
T1 construct: purchased R&D Systems
Method: The compounds according to the present technology were evaluated in terms of the inhibitory effect on the activity of dipeptidyl peptidases including FAP by using a substrate producing fluorescent substances upon enzymatic decomposition. The test was conducted at 25° C. to get a final reaction volume of 100 μL in a 96 black well plate. […] Briefly, the test compounds were dissolved in dimethyl sulfoxide (DMSO) at a concentration of 20 mM and then subjected to serial dilution, thereby creating an 8 point curve. As for the control group, a 6 point curve created by serial dilution of Talabostat in the same buffer solution was used. Fluorescence intensity was measured using a microplate reader (Flexstation3, Molecular Devices) under the wavelength condition exciting at 380 nm and reading the emission at 460 nm. The inhibitory effect of the test compounds was measured as a decrease (%) in the signal rate as compared to the control group without any inhibitor. Data was fixed to a logistic model with four variables and IC50 value was calculated using GraphPad Prism program. As for recombinant human DPP4 (R&D Systems), 25 mM tris (pH 8.0) buffer as a buffer solution and H-Gly-Pro-AMC (Bachem) as a substrate were used. As for recombinant human DPP7 (R&D Systems), 25 mM MES (pH 6.0) buffer as a buffer solution and Lys-Pro-AMC (Bachem) as a substrate were used. As for recombinant human DPP8 (PBS Bioscience), as a buffer solution, a 10 mM tris (pH 7.4) buffer comprising 10 mM of magnesium chloride and 0.05% of Tween 20, and Z-Ala-Pro-AMC (BPS Bioscience) as a substrate were used. As for recombinant human DPP9 (R&D Systems), a 25 mM tris (pH 8.0) buffer as a buffer solution and H-Gly-Pro-AMC (Bachem) as a substrate were used. As for recombinant human PREP (R&D System), as a buffer solution, a 25 mM tris (pH 7.5) buffer comprising 250 mM sodium chloride and 2.5 mM DTT (Dithiolthreitol), and Z-Gly-Pro-AMC (Bachem) as a substrate were used. The evaluation was made by using 10 ng of DPP4, PDD7, and PREP, 20 ng of DPP8, and 50 ng of DPP9 based on the final reaction. In the evaluation of DPP4, the test compounds were subjected to serial dilution in a buffer under the condition containing up to 0.1% of DMSO. In the evaluation of DPP7, DPP8, DPP9, and PREP, the test compounds were subjected to serial dilution in each buffer under the condition containing up to 0.5% of DMSO.

Recombinant human FAP = molecular target: T2, Recombinant human FAP (Homo sapiens, UniProt Q12884); experiment: FAP FRET assay, FGF21-sequence FRET peptide substrate; conditions: FRET peptide with human FGF21 sequence, 6 μM, 37° C.
T2 construct: purchased R&D systems
T2 sequence (Q12884 1-760): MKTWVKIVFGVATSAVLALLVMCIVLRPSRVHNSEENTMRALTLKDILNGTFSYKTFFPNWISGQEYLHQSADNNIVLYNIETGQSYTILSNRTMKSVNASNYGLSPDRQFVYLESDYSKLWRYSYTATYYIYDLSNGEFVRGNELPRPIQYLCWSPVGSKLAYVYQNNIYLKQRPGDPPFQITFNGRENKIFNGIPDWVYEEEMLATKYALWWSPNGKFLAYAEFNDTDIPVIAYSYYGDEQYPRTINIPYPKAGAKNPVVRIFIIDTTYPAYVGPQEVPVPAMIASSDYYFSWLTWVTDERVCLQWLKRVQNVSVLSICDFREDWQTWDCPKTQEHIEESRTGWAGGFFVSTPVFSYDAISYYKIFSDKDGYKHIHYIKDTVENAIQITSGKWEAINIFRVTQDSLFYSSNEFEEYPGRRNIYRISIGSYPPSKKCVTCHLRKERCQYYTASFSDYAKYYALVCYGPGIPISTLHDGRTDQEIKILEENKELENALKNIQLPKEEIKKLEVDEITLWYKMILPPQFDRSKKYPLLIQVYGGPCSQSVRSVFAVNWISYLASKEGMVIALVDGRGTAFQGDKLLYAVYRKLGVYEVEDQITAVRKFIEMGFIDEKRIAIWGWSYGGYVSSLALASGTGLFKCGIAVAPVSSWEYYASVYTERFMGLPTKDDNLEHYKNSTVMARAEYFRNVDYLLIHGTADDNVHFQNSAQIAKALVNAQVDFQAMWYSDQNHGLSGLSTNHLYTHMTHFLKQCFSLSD
How it was run: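 FRET peptide bearing human FGF21 sequence (6 μM final) cleaved by 10 ng recombinant human FAP at 37° C in HEPES pH 7.2 buffer with NaCl, BSA and EDTA, DMSO up to 0.1%. Signal-rate decrease versus uninhibited control fitted to a four-variable logistic model for IC50.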

DPP4 = DPP4 (Homo sapiens, UniProt P27487); experiment: DPP4 inhibition, fluorogenic substrate H-Gly-Pro-AMC; set-up: purchased R&D Systems; conditions: recombinant human DPP4
Sequence of DPP4 (P27487 whole entry): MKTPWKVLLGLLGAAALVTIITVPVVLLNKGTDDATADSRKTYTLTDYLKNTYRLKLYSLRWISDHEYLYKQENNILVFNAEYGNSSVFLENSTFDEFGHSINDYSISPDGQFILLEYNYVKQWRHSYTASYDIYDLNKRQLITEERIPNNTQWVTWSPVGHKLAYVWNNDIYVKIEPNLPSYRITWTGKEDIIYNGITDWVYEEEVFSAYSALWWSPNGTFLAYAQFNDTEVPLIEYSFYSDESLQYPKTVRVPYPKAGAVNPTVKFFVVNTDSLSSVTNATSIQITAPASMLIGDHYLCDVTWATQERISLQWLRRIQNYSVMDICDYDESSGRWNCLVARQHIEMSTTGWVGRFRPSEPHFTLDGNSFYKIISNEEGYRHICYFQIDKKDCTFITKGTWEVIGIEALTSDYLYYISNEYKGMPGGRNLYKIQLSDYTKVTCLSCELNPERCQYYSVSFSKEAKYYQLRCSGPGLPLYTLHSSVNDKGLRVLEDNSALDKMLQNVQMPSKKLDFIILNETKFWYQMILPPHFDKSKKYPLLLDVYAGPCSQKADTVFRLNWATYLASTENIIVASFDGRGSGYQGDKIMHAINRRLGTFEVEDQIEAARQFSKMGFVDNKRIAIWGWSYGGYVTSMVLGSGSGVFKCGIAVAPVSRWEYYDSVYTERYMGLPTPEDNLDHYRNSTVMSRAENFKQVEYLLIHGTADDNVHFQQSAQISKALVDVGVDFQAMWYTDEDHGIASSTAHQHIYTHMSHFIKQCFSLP

IC50 (recombinant human DPP7) [nM]	IC50 (Recombinant human FAP) [nM]	IC50 (DPP4) [nM]	SMILES
2790	8.2	2190	N#C[C@@H]1C[C@H](F)CN1C(=O)CN1CC[C@@H](Nc2cnc3ncccc3c2)C1 [Example 171, (2S,4S)-4-fluoro-1-[2-[(3R)-3-(1,8-naphthyridin-3-ylamino)pyrrolidin-1-yl]acetyl]pyrrolidine-2-carbonitrile]
4240	3.5	1690	N#C[C@@H]1C[C@H](F)CN1C(=O)CN1CC[C@@H](Nc2ccc(F)c3ncccc23)C1 [Example 175, (2S,4S)-4-fluoro-1-[2-[(3R)-3-[(8-fluoro-5-quinolyl)amino]pyrrolidin-1-yl]acetyl]pyrrolidine-2-carbonitrile]
7010	1.7	4430	N#C[C@@H]1CCCN1C(=O)CN1CC[C@@H](Nc2cccc3ncc(F)cc23)C1 [Example 209, (2S)-1-[2-[(3R)-3-[(3-fluoro-5-quinolyl)amino]pyrrolidin-1-yl]acetyl]pyrrolidine-2-carbonitrile]
74.3	1	1210	N#C[C@@H]1C[C@H](F)CN1C(=O)CN1CC[C@H](Nc2ccc(C(=O)Nc3ccccc3)c3ncccc23)C1 [Example 283, N-phenyl-5-[[(3S)-1-[2-oxo-2-[(2S,4S)-2-cyano-4-fluoro-pyrrolidin-1-yl]ethyl]pyrrolidin-3-yl]amino]quinoline-8-carboxamide]
904	1.2	7580	N#C[C@@H]1CCCN1C(=O)CN1CC[C@H](Nc2ccc(C(=O)Nc3ccccc3)c3ncccc23)C1 [Example 287, N-phenyl-5-[[(3S)-1-[2-oxo-2-[(2S)-2-cyanopyrrolidin-1-yl]ethyl]pyrrolidin-3-yl]amino]quinoline-8-carboxamide]
	14.3	10600	N#C[C@@H]1C[C@H](F)CN1C(=O)CN1CCC(Nc2ccc3nc(C(F)(F)F)ccc3c2)CC1 [Example 381, (2S,4S)-4-fluoro-1-[2-[4-[[2-(trifluoromethyl)-6-quinolyl]amino]-1-piperidyl]acetyl]pyrrolidine-2-carbonitrile]
	80	3150	COc1ccnc2ccc(NC3CCN(CC(=O)N4C[C@@H](F)C[C@H]4C#N)CC3)cc12 [Example 382, (2S,4S)-4-fluoro-1-[2-[4-[(4-methoxy-6-quinolyl)amino]-1-piperidyl]acetyl]pyrrolidine-2-carbonitrile]
	39.3	2800	N#C[C@@H]1C[C@H](F)CN1C(=O)CN1CCC(Nc2ccnc(Br)c2)CC1 [Example 383, (2S,4S)-1-[2-[4-[(2-bromo-4-pyridyl)amino]-1-piperidyl]acetyl]-4-fluoro-pyrrolidine-2-carbonitrile]
	70.2	6890	N#C[C@@H]1C[C@H](F)CN1C(=O)CN1CCC(Nc2cccc3ncc(C(=O)Nc4ccccc4)cc23)CC1 [Example 388, 5-[[1-[2-oxo-2-[(2S,4S)-2-cyano-4-fluoro-pyrrolidin-1-yl]ethyl]-4-piperidyl]amino]-N-phenyl-quinoline-3-carboxamide]
	67.5	3890	CN(Cc1ccccc1)C(=O)c1cnc2cccc(NC3CCN(CC(=O)N4C[C@@H](F)C[C@H]4C#N)CC3)c2c1 [Example 389, N-benzyl-N-methyl-5-[[1-[2-oxo-2-[(2S,4S)-2-cyano-4-fluoro-pyrrolidin-1-yl]ethyl]-4-piperidyl]amino]quinoline-3-carboxamide]
	27.5	3500	CN(C)C(=O)c1ccc(NC2CCN(CC(=O)N3C[C@@H](F)C[C@H]3C#N)CC2)c2cccnc12 [Example 391, N,N-dimethyl-5-[[1-[2-oxo-2-[(2S,4S)-2-cyano-4-fluoro-pyrrolidin-1-yl]ethyl]-4-piperidyl]amino]quinoline-8-carboxamide]
	50.6	2070	CN(C(=O)c1ccc(NC2CCN(CC(=O)N3C[C@@H](F)C[C@H]3C#N)CC2)c2cccnc12)c1ccccc1 [Example 392, N-methyl-5-[[1-[2-oxo-2-[(2S,4S)-2-cyano-4-fluoro-pyrrolidin-1-yl]ethyl]-4-piperidyl]amino]-N-phenyl-quinoline-8-carboxamide]
	43.8	3310	CN(Cc1ccccc1)C(=O)c1ccc(NC2CCN(CC(=O)N3C[C@@H](F)C[C@H]3C#N)CC2)c2cccnc12 [Example 393, N-benzyl-N-methyl-5-[[1-[2-oxo-2-[(2S,4S)-2-cyano-4-fluoro-pyrrolidin-1-yl]ethyl]-4-piperidyl]amino]quinoline-8-carboxamide]
	18.6	6040	CNC(=O)c1ccc(NC2CCN(CC(=O)N3CCC[C@H]3C#N)CC2)c2cccnc12 [Example 395, N-methyl-5-[[1-[2-oxo-2-[(2S)-2-cyanopyrrolidin-1-yl]ethyl]-4-piperidyl]amino]quinoline-8-carboxamide]
	38.9	28500	CN(Cc1ccccc1)C(=O)c1ccc(NC2CCN(CC(=O)N3CCC[C@H]3C#N)CC2)c2cccnc12 [Example 397, N-benzyl-N-methyl-5-[[1-[2-oxo-2-[(2S)-2-cyanopyrrolidin-1-yl]ethyl]-4-piperidyl]amino]quinoline-8-carboxamide]
	98.6	14000	CN(C(=O)c1ccc(NC2CCN(CC(=O)N3CCC[C@H]3C#N)CC2)c2cccnc12)c1ccccc1 [Example 398, N-methyl-5-[[1-[2-oxo-2-[(2S)-2-cyanopyrrolidin-1-yl]ethyl]-4-piperidyl]amino]-N-phenyl-quinoline-8-carboxamide]
	12.8	8190	CC(=O)Nc1ccc(NC2CCN(CC(=O)N3CCC[C@H]3C#N)CC2)c2cccnc12 [Example 408, N-[5-[[1-[2-oxo-2-[(2S)-2-cyanopyrrolidin-1-yl]ethyl]-4-piperidyl]amino]-8-quinolyl]acetamide]
	17.3	32600	N#C[C@@H]1CCCN1C(=O)CN1CCC(Oc2ccnc3cc(Cl)ccc23)CC1 [Example 428, (2S)-1-[2-[4-[(7-chloro-4-quinolyl)oxy]-1-piperidyl]acetyl]pyrrolidine-2-carbonitrile]
	24.5	29400	N#Cc1ccc2c(OC3CCN(CC(=O)N4CCC[C@H]4C#N)CC3)cccc2n1 [Example 430, 5-[[1-[2-oxo-2-[(2S)-2-cyanopyrrolidin-1-yl]ethyl]-4-piperidyl]oxy]quinoline-2-carbonitrile]
	19.8	6580	Cc1ccc2c(OC3CCN(CC(=O)N4C[C@@H](F)C[C@H]4C#N)CC3)ccnc2c1 [Example 432, (2S,4S)-4-fluoro-1-[2-[4-[(7-methyl-4-quinolyl)oxy]-1-piperidyl]acetyl]pyrrolidine-2-carbonitrile]

— patent publication US11655235B2, “Pyrrolidine and piperidine compounds” (YUHAN CORPORATION, priority 2019, dated 2023)
